Data from PubChem BioAssay (NCI).
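Five concentrations, 48 hours, 96-well plates. Definition used: TGI = concentration required for complete inhibition of growth.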

Assays:
Assay in all cases: inhibition of tumour cell growth, NCI panel, 48 h
A549 NSCLC = test system: A549 NSCLC
BT-549 breast = test system: BT-549 breast
COLO 205 colon = test system: COLO 205 colon
HCT-15 colon = test system: HCT-15 colon
K-562 leukemia = test system: K-562 leukemia
MDA-MB-231 breast = test system: MDA-MB-231 breast
MOLT-4 leukemia = test system: MOLT-4 leukemia
NCI-H226 lung = test system: NCI-H226 lung
OVCAR-5 ovarian = test system: OVCAR-5 ovarian
OVCAR-8 ovarian = test system: OVCAR-8 ovarian
RPMI-8226 leukemia = test system: RPMI-8226 leukemia
SF-268 CNS = test system: SF-268 CNS
SK-MEL-2 melanoma = test system: SK-MEL-2 melanoma
SR leukemia = test system: SR leukemia
U251 CNS = test system: U251 CNS

| Structure (SMILES) | TGI (A549 NSCLC) [µM] | TGI (BT-549 breast) [µM] | TGI (COLO 205 colon) [µM] | TGI (HCT-15 colon) [µM] | TGI (K-562 leukemia) [µM] | TGI (MDA-MB-231 breast) [µM] | TGI (MOLT-4 leukemia) [µM] | TGI (NCI-H226 lung) [µM] | TGI (OVCAR-5 ovarian) [µM] | TGI (OVCAR-8 ovarian) [µM] | TGI (RPMI-8226 leukemia) [µM] | TGI (SF-268 CNS) [µM] | TGI (SK-MEL-2 melanoma) [µM] | TGI (SR leukemia) [µM] | TGI (U251 CNS) [µM] |
| --- | --- | --- | --- | --- | --- | --- | --- | --- | --- | --- | --- | --- | --- | --- | --- |
| O=C(O)[C@H]1NC[C@@H]2ON=C(Br)[C@@H]21 | > 100 | > 100 | > 100 | > 100 | > 100 | > 100 | > 100 | > 100 | > 100 | > 100 | > 100 | > 100 | > 100 | > 100 | > 100 |
| CS(=O)(=O)OC1CCN(C2(c3cccc(O)c3)CCCCC2)CC1 | > 100 | > 100 | > 100 | > 100 | > 100 | > 100 | 94.1 | > 100 | > 100 | > 100 | 49 | > 100 | > 100 | 49.4 | > 100 |
| Cc1ccc(N2C(=O)C(O)=C(C(=O)C(C)(C)C)C2c2ccc([N+](=O)[O-])cc2)cc1 (stereo not given) | 82.5 | 39 | 32.3 | 47.4 | 85.2 | 45.7 | 31.5 | 43.3 | > 100 | 59.1 | 49.4 | 47.8 | 58.5 | 24.7 | > 100 |
| Nc1ccc(S(=O)(=O)c2ccc(N=[N+]([O-])c3ccc(S(=O)(=O)c4ccc(N)cc4)cc3)cc2)cc1 | > 100 | > 65.6 | > 100 | > 100 | > 100 | > 78.1 | > 100 | 92.2 | > 100 | > 100 | > 100 | > 45.9 | > 94.2 | > 100 | > 57.3 |
| COc1cc(C2c3cc4c(cc3OC(N3CCOCC3)C2C)OCO4)cc(OC)c1OC (stereo not given) | > 69.2 | 65.8 | > 71.3 | > 40.3 | > 54.3 | 37.3 | > 38.2 | 11.2 | > 65.7 | 59.2 | > 23.7 | > 100 | 28.2 | > 100 | > 20.1 |
| Nc1nc(SCc2ccccc2[N+](=O)[O-])c2[nH]cnc2n1 | > 100 | > 100 | > 71.7 | > 100 | > 100 | > 100 | > 100 | 97.5 | > 100 | > 100 | > 100 | > 84.6 | 90.3 | > 100 | > 100 |
| Cn1c2cc(Cl)ccc2c2ccc3c(c21)C(=O)C=CC3=O | > 100 | > 63.8 | 20.7 | > 57.5 | 11.4 | > 68.6 | 10.3 | > 100 | > 100 | > 100 | 23.7 | > 82.6 | > 100 | 26.1 | > 100 |
| COC(=O)C1(Cc2ccc3c(c2)CCC3)Cc2cc3c(cc2C1=O)CCC3 (stereo not given) | > 46.4 | 39.2 | 29.2 | > 46.4 | > 46.4 | > 46.4 | 38.7 | > 46.4 | > 46.4 | > 46.4 | 31.3 | > 46.4 | > 31.6 | 33 | > 46.4 |
| CCC(c1nc2ccccc2c(=O)n1NC(=O)C(C)(C)C)C1(O)CCCCC1 (stereo not given) | > 100 | > 100 | > 100 | > 100 | > 100 | > 100 | > 100 | > 100 | > 100 | > 100 | > 100 | > 100 | > 100 | > 100 | > 100 |
| CC(C)=CCC[C@@H](C)C1=C(O)C(Nc2ccccc2F)=C(C)C(=O)C1=O | > 77.5 | > 79.7 | > 68.9 | > 70.2 | > 100 | > 100 | > 100 | > 78.7 | > 100 | > 100 | > 89.1 | > 54 | 68.3 | > 100 | > 100 |
| COc1ccc2c(c1)-c1c(c3ccccc3n1CCN1CCOCC1)CC2 | > 100 | 63.5 | 32.5 | > 100 | 54.5 | 90.9 | 37.9 | 26.3 | > 100 | 53.2 | 97 | 76.9 | 28.9 | 53.3 | 81.8 |
| CCOc1ccc(C(c2c(O)c3ccccc3oc2=O)c2c(O)c3ccccc3oc2=O)cc1 | > 100 | > 100 | > 100 | > 100 | > 100 | > 100 | > 100 | > 100 | > 100 | > 100 | 93.8 | > 100 | 59.1 | 58.7 | > 100 |
| COc1ccc(-c2cc(-c3ccc(Nc4ccnc5cc(C(F)(F)F)ccc45)cc3)[nH]c(=O)c2C#N)cc1 | > 100 | > 94.9 | > 63.7 | > 100 | > 100 | > 82.9 | > 100 | > 70.9 | > 100 | > 100 | > 100 | > 88.6 | > 100 | > 100 | > 70.9 |
| CCC(=O)n1c(=O)n(-c2ccc([N+](=O)[O-])cc2)c(=O)n1C(=O)CC | > 100 | > 100 | > 100 | > 100 | > 100 | > 100 | > 100 | > 100 | > 100 | > 100 | > 100 | > 100 | > 100 | > 100 | > 100 |
| CC(C)(CO)NC(=O)c1cccc(C(=O)NC(C)(C)CO)c1Br | > 100 | > 100 | > 100 | > 100 | > 100 | > 100 | > 100 | > 100 | > 100 | > 100 | > 100 | > 100 | > 100 | > 100 | > 100 |
| CCOc1ccc(-n2c(=O)n3c(Nc4ccc(Cl)cc4)nc4c(c(=O)n(C)c(=O)n4C)n3c2=O)cc1 | > 100 | 64.3 | 46.4 | 42 | 84 | 35.1 | 69.9 | 74.5 | > 100 | > 100 | 61.4 | > 100 | > 100 | 51.6 | > 100 |
| O=c1[nH]c2cc([N+](=O)[O-])c(N(CCO)CCO)c([N+](=O)[O-])c2[nH]1 | > 100 | 51.7 | 51.8 | > 100 | > 100 | > 100 | 91.7 | 71.4 | > 100 | > 100 | 98.1 | > 100 | 96.1 | > 100 | > 100 |
| COc1cc(C(c2cc(OC)c(OC)c(OC)c2)N2C(=O)CCC2C(=O)O)cc(OC)c1OC (stereo not given) | > 100 | > 100 | > 100 | > 100 | > 100 | > 100 | > 100 | > 100 | > 100 | > 100 | > 100 | > 100 | > 100 | > 100 | > 100 |
| CC1=NN(c2cccc(Cl)c2)C2(C1)SCC(=O)N2c1nc2ccccc2s1 (stereo not given) | > 100 | > 100 | 32.5 | > 100 | 48.9 | 40.3 | 38.9 | 37.1 | > 100 | > 100 | 38.6 | > 100 | 49.2 | 37.8 | 75.2 |
| CC1(C)OCC(C2OC(=O)C(OCc3ccccc3)=C2OCc2ccccc2)O1 (stereo not given) | > 100 | 93.2 | 50.6 | > 100 | > 100 | > 100 | 73.1 | > 100 | > 100 | > 100 | 76.5 | > 100 | 61 | > 100 | > 100 |
| O=C(O)C1Cc2ccccc2OC1=O (stereo not given) | > 100 | > 100 | > 100 | > 100 | > 100 | > 100 | > 100 | > 100 | > 100 | > 100 | > 100 | > 100 | > 100 | > 100 | > 100 |
| O=C(Nc1ccc(Cl)cc1)c1cc(S(=O)(=O)NC2=NC(c3ccccc3)c3cc(Cl)ccc3N2)c(SSc2cc(Cl)c(C(=O)Nc3ccc(Cl)cc3)cc2S(=O)(=O)NC2=NC(c3ccccc3)c3cc(Cl)ccc3N2)cc1Cl (stereo not given) | > 100 | > 100 | > 100 | > 100 | > 100 | > 100 | > 61.6 | > 100 | > 100 | > 100 | > 100 | > 100 | > 100 | 58.5 | > 100 |
| CN(C)C(=O)CO/N=C1/C(c2c(O)[nH]c3ccccc23)=Nc2ccccc21 | > 100 | > 100 | > 100 | > 100 | > 100 | > 100 | > 100 | > 100 | > 100 | > 100 | > 100 | > 100 | > 100 | > 100 | > 100 |
| COc1ccc(C2c3c(-c4ccccc4)nn(-c4ccccc4)c3Oc3ncn(N)c(=N)c32)cc1OC (stereo not given) | 4.81 | 15 | 3.53 | 4.06 | > 100 | 3.8 | > 34.4 | 7.44 | 13.5 | 5.89 | > 25.1 | 10.4 | 3.51 | > 26.6 | > 100 |
